Laboratory results reported in patent US8956645B2, “Water-soluble pharmaceutical composition comprising at least one therapeutically active substance having hydrophobic properties and at least one compound selected from among sialoglycosphingolipids, glycosphingolipids or a mixture of sialoglycosphingolipids and glycosphingolipids” (Consejo Nacional de Investigaciones Cientificas y Tecnicas …, priority 2010, dated 2015).

Legend:
HEP-2 and Hela cells = assay: Cell viability by MTT assay, tumoral cells; assay type: cell-based; conditions: 24 hours
Protocol: FIG. 7: HEP-2 and HELA cells of tumor origin were incubated with increasing concentrations of: a)-( ? ) Ptx in DMSO, b)-( ? ) Ptx-GM1 micelles 1/25, c)-( ? ) GM1 micelles and d)-( ? ) micelles of the GM1-Ptx-albumine complex. Cellular viability was evaluated using MTT assay after 24 hs incubation.
(§1) Different cell types, tumoral such as HEP-2 and Hela, and non-tumoral as VERO and MA were incubated in MEM medium containing 2% fetal bovine serum (Natocor-Villa Carlos Paz—Córdoba—Argentina) in a CO2 incubator with 5% CO2, to confluence. Different concentrations of the compositions mentioned below were added to the cell culture: […]
(§2) a)—Ptx in DMSO as positive control b)—Ptx-GM1 micelles 1/25 molar ratio c)—GM1 micelles in equal concentrations as in b), to control the effect of the GM1 itself, and d)—micelles of the albumin-Ptx-GM1 complex
(§3) Cell viability was evaluated by MTT assay after 24 hours of incubation.

VERO and MA cells = assay: Cell viability by MTT assay, non-tumoral cells; assay type: cell-based; conditions: 24 hours
Protocol: FIG. 6: VERO and MA cells of non tumoral origin were incubated with increasing concentrations of: a)-( ? ) Ptx in DMSO, b)-( ? ) micelles of Ptx-GM1 1/25, c)-( ? ) micelles of GM1 and d)-( ? ) micelles of the albumine-Ptx-GM1 complex. Cellular viability was evaluated using MTT assay marker after 24 hs incubation.
as §1, §2, §3

## CC(=O)O[C@H]1C(=O)[C@@]2(C)[C@H]([C@H](OC(=O)c3ccccc3)[C@]3(O)C[C@H](OC(=O)[C@H](O)[C@@H](NC(=O)c4ccccc4)c4ccccc4)C(C)=C1C3(C)C)[C@]1(OC(C)=O)CO[C@@H]1C[C@@H]2O [Ptx, paclitaxel]
HEP-2 and Hela cells
  concentration producing complete death: 10 ng/mL
VERO and MA cells
  concentration producing complete death: 100 ng/mL
